Experimental data reported in US12275729B2 (Merck Sharp & Dohme LLC, priority 2017, dated 2025).

Each compound was assayed against IDO1 (Homo sapiens, UniProt P14902) (assay: IDO1 Cellular Assay in HeLa Cells Stimulated with IFNγ). Settings: about 48 hours, read-out: Hela IC50.
Type: cell-based

IDO1, sequence (P14902 whole entry): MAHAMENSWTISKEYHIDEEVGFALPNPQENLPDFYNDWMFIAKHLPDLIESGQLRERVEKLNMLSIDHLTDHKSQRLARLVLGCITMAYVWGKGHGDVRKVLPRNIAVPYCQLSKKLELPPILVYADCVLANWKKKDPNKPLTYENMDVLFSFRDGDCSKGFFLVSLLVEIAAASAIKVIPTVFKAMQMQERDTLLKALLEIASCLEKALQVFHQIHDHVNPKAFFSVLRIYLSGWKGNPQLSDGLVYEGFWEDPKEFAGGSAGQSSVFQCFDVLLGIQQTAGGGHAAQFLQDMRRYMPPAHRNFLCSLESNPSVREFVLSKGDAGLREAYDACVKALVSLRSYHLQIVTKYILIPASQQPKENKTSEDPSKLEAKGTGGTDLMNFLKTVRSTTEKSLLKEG

Row | IC50 [nM] | SMILES
1 | 4.3 | C=CCC(C(=O)Nc1ccc(F)cc1)c1ccc2c(c1)CCCN2C(=O)c1cccc(Cl)c1 (stereo not drawn) [Example 58, 2-[1-(3-chlorobenzene-1-carbonyl)-1,2,3,4-tetrahydroquinolin-6-yl]-N-(4-fluorophenyl)pent-4-enamide]
2 | 4.3 | CC(C)CC(=O)N1CCCc2cc(C(C)NC(=O)c3ccc(Cl)cc3)ccc21 (single isomer, unassigned) [Example 26, 4-chloro-N-{1-[1-(3-methylbutanoyl)-1,2,3,4-tetrahydroquinolin-6-yl]ethyl}benzamide]
3 | 9.3 | O=C(NC1(c2ccc3c(n2)CCCN3c2ccncn2)CC1)c1ccc(F)cc1 [Example 246, 4-fluoro-N-(1-(5-(pyrimidin-4-yl)-5,6,7,8-tetrahydro-1,5-naphthyridin-2-yl)cyclopropyl)benzamide]
4 | 2.4 | O=C(NC1(c2ccc3c(n2)CCCN3C(=O)C2CCCCO2)CC1)c1ccc(F)cc1 (stereo not drawn) [Example 170, 4-fluoro-N-{1-[5-(oxane-2-carbonyl)-5,6,7,8-tetrahydro-1,5-naphthyridin-2-yl]cyclopropyl}benzamide]
5 | 393 | CC(NC(=O)c1ccc(F)cc1)c1ccc2c(n1)C(O)CCN2C(=O)C1CC1 (single isomer, unassigned) [Example 198, N-(1-(5-(cyclopropanecarbonyl)-8-hydroxy-5,6,7,8-tetrahydro-1,5-naphthyridin-2-yl)ethyl)-4-fluorobenzamide]
6 | 4.2 | Cc1noc(C(=O)N2CCCc3cc(C(C)C(=O)Nc4ccc(F)cc4)ccc32)n1 (stereo not drawn) [Example 43, N-(4-fluorophenyl)-2-[1-(3-methyl-1H-1,2,4-oxadiazole-5-carbonyl)-1,2,3,4-tetrahydroquinolin-6-yl]propanamide]
7 | 825 | CC(NC(=O)c1ccc(F)cc1)c1ccc2c(n1)C(=O)CCN2C(=O)C1CC1 (stereo not drawn) [Example 192, N-(1-(5-(cyclopropanecarbonyl)-8-oxo-5,6,7,8-tetrahydro-1,5-naphthyridin-2-yl)ethyl)-4-fluorobenzamide]
8 | 10.9 | C[C@H](C(=O)Nc1ccc(F)cc1)c1ccc2c(c1)CCCN2C(=O)CC1CC1 [Example 82, (2S)-2-[1-(cyclopropylacetyl)-1,2,3,4-tetrahydroquinolin-6-yl]-N-(4-fluorophenyl)propanamide]
9 | 20 | COCC(=O)N1CCCc2cc(C(C)C(=O)Nc3ccc(F)cc3)ccc21 (stereo not drawn) [Example 59, N-(4-fluorophenyl)-2-[1-(methoxyacetyl)-1,2,3,4-tetrahydroquinolin-6-yl]propanamide]
10 | 2650 | CC(NC(=O)c1ccc(F)cc1)c1ccc2c(n1)C(F)(F)CCN2C(=O)C1CC1 (single isomer, unassigned) [Example 194, N-(1-(5-(cyclopropanecarbonyl)-8,8-difluoro-5,6,7,8-tetrahydro-1,5-naphthyridin-2-yl)ethyl)-4-fluorobenzamide]
11 | 34.9 | CC(C)C(C(=O)Nc1ccc(F)cc1)c1ccc2c(n1)CCCN2C(=O)C1CC1 (stereo not drawn) [Example 263, 2-(5-(cyclopropanecarbonyl)-5,6,7,8-tetrahydro-1,5-naphthyridin-2-yl)-N-(4-fluorophenyl)-3-methylbutanamide]
12 | 1540 | CC(NC(=O)c1ccc(F)cc1)c1ccc2c(n1)CCCN2C(=O)C1COC1 (stereo not drawn) [Example 142, 4-fluoro-N-{1-[5-(oxetane-3-carbonyl)-5,6,7,8-tetrahydro-1,5-naphthyridin-2-yl]ethyl}benzamide]
13 | 86.1 | O=C(c1cnn(CC(F)F)c1)N1CCCc2cc(C3(C(=O)Nc4ccc(F)cc4)CCC3)ccc21 [Example 114, 1-{1-[1-(2,2-difluoroethyl)-1H-pyrazole-4-carbonyl]-1,2,3,4-tetrahydroquinolin-6-yl}-N-(4-fluorophenyl)cyclobutane-1-carboxamide]
14 | 30 | CC(C(=O)Nc1ccc(F)cc1)c1ccc2c(c1)CCCN2C(=O)c1cnco1 (stereo not drawn) [Example 49, N-(4-fluorophenyl)-2-[1-(1,3-oxazole-5-carbonyl)-1,2,3,4-tetrahydroquinolin-6-yl]propanamide]
15 | 91.1 | CC(C(=O)Nc1ccc(F)cc1)c1ccc2c(c1)CCCN2C1COC1 (stereo not drawn) [Example 231, N-(4-fluorophenyl)-2-[1-(oxetan-3-yl)-1,2,3,4-tetrahydroquinolin-6-yl]propanamide]
16 | 5.9 | CC(C)(C(=O)Nc1ccc(F)cc1)c1ccc2c(n1)CCCN2C(=O)C1CCOCC1 [Example 186, N-(4-fluorophenyl)-2-methyl-2-[5-(oxane-4-carbonyl)-5,6,7,8-tetrahydro-1,5-naphthyridin-2-yl]propanamide]
17 | 4.9 | N#Cc1cccc(C(=O)N2CCCc3cc(C4(C(=O)Nc5ccc(F)cn5)CCC4)ccc32)c1 [Example 108, 1-[1-(3-cyanobenzene-1-carbonyl)-1,2,3,4-tetrahydroquinolin-6-yl]-N-(5-fluoropyridin-2-yl)cyclobutane-1-carboxamide]
18 | 41.4 | CC(C)CC(=O)N1CCCc2cc(CNC(=O)c3ccc(F)cc3)ccc21 [Example 11, 4-fluoro-N-{[1-(3-methylbutanoyl)-1,2,3,4-tetrahydroquinolin-6-yl]methyl}benzamide]
19 | 43.8 | CC(C)[C@@H](O)C(=O)N1CCCc2cc([C@H](C)C(=O)Nc3ccc(F)cc3)ccc21 (single isomer, unassigned) [Example 72]
20 | 38.4 | Cc1n[nH]c(C(=O)N2CCCc3cc(C(C)C(=O)Nc4ccc(F)cc4)ccc32)n1 (stereo not drawn) [Example 42, N-(4-fluorophenyl)-2-[1-(3-methyl-1H-1,2,4-triazole-5-carbonyl)-1,2,3,4-tetrahydroquinolin-6-yl]propanamide]
21 | 2.7 | CCn1cc(C(=O)N2CCCc3cc(C4(C(=O)Nc5ccc(F)cc5)CCC4)ccc32)cn1 [Example 112, 1-[1-(1-ethyl-1H-pyrazole-4-carbonyl)-1,2,3,4-tetrahydroquinolin-6-yl]-N-(4-fluorophenyl)cyclobutane-1-carboxamide]
22 | 296 | C[C@H](C(=O)Nc1ccc(F)cc1)c1ccc2c(c1)CCCN2C(=O)C[C@@H](C)O [Example 68, (2S)-N-(4-fluorophenyl)-2-{1-[(3R)-3-hydroxybulanoyl]-1,2,3,4-tetrahydroquinolin-6-yl}propanamide]
23 | 248 | O=C(c1nnc(C(F)(F)F)[nH]1)N1CCCc2cc(C3(C(=O)Nc4ccc(F)cc4)CCC3)ccc21 [Example 110, N-(4-fluorophenyl)-1-{1-[5-(trifluoromethyl)-4H-1,2,4-triazole-3-carbonyl]-1,2,3,4-tetrahydroquinolin-6-yl}cyclobutane-1-carboxamide]
24 | 1.91 | Cc1ccnc(C(=O)N2CCCc3nc(C4(C(=O)Nc5ccc(F)cc5)COC4)ccc32)n1 [Example 400, N-(4-fluorophenyl)-3-(5-(4-methylpyrimidine-2-carbonyl)-5,6,7,8-tetrahydro-1,5-naphthyridin-2-yl)oxetane-3-carboxamide]
25 | 24 | C[C@@H](NC(=O)c1ccc(F)cc1)c1ccc2c(n1)CCCN2C(=O)[C@H]1CC1(F)F (single isomer, unassigned) [Example 134]
26 | 2.2 | O=C(OC1CC1)N1CCc2nc(C3(C(=O)Nc4ccc(F)cc4)CCC3)ccc21 [Example 269, cyclopropyl 5-(1-((4-fluorophenyl)carbamoyl)cyclobutyl) 2,3-dihydro-1H-pyrrolo[3,2-b]pyridine-1-carboxylate]
27 | 186 | CC(NC(=O)c1ccc(F)cc1)c1ccc2c(n1)C(F)CCN2C(=O)C1CC1 (single isomer, unassigned) [Example 201, N-(1-(5-(cyclopropanecarbonyl)-8-fluoro-5,6,7,8-tetrahydro-1,5-naphthyridin-2-yl)ethyl)-4-fluorobenzamide]
28 | 30.9 | CC(C)C(C(=O)Nc1ccc(F)cc1)c1ccc2c(n1)CCCN2C(=O)C1CC1 (stereo not drawn) [Example 264, 2-(5-(cyclopropanecarbonyl)-5,6,7,8-tetrahydro-1,5-naphthyridin-2-yl)-N-(4-fluorophenyl)-3-methylbutanamide]
29 | 98.6 | CC(C)CC(=O)N1c2ccc(CNC(=O)c3ccc(Cl)cc3)cc2CCC1(C)C [Example 13, 4-chloro-N-{[2,2-dimethyl-1-(3-methylbutanoyl)-1,2,3,4-tetrahydroquinolin-6-yl]methyl}benzamide]

Same assay, conditions: read-out: Hela IC50

Row | IC50 [nM] | SMILES
30 | 0.92 | O=C(OC1CC1)N1CCCc2nc(C3(C(=O)Nc4ccc(Cl)nc4)CCC3)ccc21 [Example 412, cyclopropyl 6-(1-((6-chloropyridin-3-yl)carbamoyl)cyclobutyl)-3,4-dihydro-1,5-naphthyridine-1(2H)-carboxylate]
31 | 0.79 | O=C(Nc1ccc(F)cc1)C1(c2ccc3c(n2)CCCN3c2ccnc(C(F)(F)F)n2)CC2(CC2)C1 [Example 416, N-(4-fluorophenyl)-5-(5-(2-(trifluoromethyl)pyrimidin-4-yl)-5,6,7,8-tetrahydro-1,5-naphthyridin-2-yl)spiro[2.3]hexane-5-carboxamide]
32 | 1300 | CC(NC(=O)c1ccc(F)cc1)c1ccc2c(n1)CCCN2C(=O)OCCCn1ccnc1 (stereo not drawn) [Example 325, 3-(1H-imidazol-1-yl)propyl 6-(1-(4-fluorobenzamido)ethyl)-3,4-dihydro-1,5-naphthyridine-1(2H)-carboxylate]
33 | 1800 | CC(NC(=O)c1ccc(F)cc1)c1ccc2c(n1)CCCN2c1ccn2ncnc2n1 (stereo not drawn) [Example 370, N-(1-(5-([1,2,4]triazolo[1,5-a]pyrimidin-5-yl)-5,6,7,8-tetrahydro-1,5-naphthyridin-2-yl)ethyl)-4-fluorobenzamide]
34 | 14.4 | CC(COC(=O)N1CCCc2nc(C(C)NC(=O)c3ccc(F)cc3)ccc21)Oc1ccccc1 (stereo not drawn) [Example 327, 2-phenoxypropyl 6-(1-(4-fluorobenzamido)ethyl)-3,4-dihydro-1,5-naphthyridine-1(2H)-carboxylate]
35 | 10.5 | CC(NC(=O)c1ccc(F)cc1)c1ccc2c(n1)CCCN2c1cccc(C(F)(F)F)n1 (stereo not drawn) [Example 354, 4-fluoro-N-(1-(5-(6-(trifluoromethyl)pyridin-2-yl)-5,6,7,8-tetrahydro-1,5-naphthyridin-2-yl)ethyl)benzamide]
36 | 1.81 | CC(C(=O)Nc1ccc(F)cc1)c1ccc2c(n1)CCCN2c1ccnc(C2CC2)n1 (stereo not drawn) [Example 367, 2-(5-(2-cyclopropylpyrimidin-4-yl)-5,6,7,8-tetrahydro-1,5-naphthyridin-2-yl)-N-(4-fluorophenyl)propanamide]
